Test in all cases: Kinase panel profiling at 1 µmol/L (MSA or IMAP), percentage inhibition
What all share (format): biochemical

Assay [1] addresses panel of 255 wild-type kinases (Homo sapiens, UniProt O43683). The following applies: read-out: %-inhibition BUB1/BUB3.
Assay [2] deals with T1, panel of 255 wild-type kinases (Homo sapiens, UniProt O60285).
T1 sequence (O60285 1-661): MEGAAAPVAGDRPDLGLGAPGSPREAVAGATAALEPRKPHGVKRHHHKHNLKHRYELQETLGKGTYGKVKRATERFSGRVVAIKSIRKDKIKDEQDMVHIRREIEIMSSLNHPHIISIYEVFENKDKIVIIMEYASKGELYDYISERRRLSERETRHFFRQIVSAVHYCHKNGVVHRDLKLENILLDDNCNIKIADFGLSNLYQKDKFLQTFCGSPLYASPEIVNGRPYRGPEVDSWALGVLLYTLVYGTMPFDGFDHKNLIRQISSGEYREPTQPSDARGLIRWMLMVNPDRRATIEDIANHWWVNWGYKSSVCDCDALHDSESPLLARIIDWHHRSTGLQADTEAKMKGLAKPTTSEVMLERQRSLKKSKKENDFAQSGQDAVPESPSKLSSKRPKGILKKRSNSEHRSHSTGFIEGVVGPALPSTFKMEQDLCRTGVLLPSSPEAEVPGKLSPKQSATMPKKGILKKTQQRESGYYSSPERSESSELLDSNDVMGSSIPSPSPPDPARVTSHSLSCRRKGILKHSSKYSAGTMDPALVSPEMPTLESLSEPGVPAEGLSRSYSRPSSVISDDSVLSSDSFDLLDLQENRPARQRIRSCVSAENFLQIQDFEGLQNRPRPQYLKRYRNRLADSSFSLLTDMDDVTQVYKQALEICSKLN
Particulars: read-out: %-inhibition, NuaK1.

For assay [3], the target named is panel of 255 wild-type kinases (Homo sapiens, UniProt O60674). Particulars: read-out: %-inhibition at 1 µmol/L, JAK2.
The target of assay [4] is panel of 255 wild-type kinases (Homo sapiens, UniProt P05771). The following applies: read-out: %-inhibition at 1 µmol/L, PKCβ1.
For assay [5], the target named is panel of 255 wild-type kinases (Homo sapiens, UniProt P14616). The following applies: read-out: %-inhibition at 1 µmol/L, IRR.
For assay [6], the target named is T2, panel of 255 wild-type kinases (Homo sapiens, UniProt P21709).
T2 sequence (P21709 26-976): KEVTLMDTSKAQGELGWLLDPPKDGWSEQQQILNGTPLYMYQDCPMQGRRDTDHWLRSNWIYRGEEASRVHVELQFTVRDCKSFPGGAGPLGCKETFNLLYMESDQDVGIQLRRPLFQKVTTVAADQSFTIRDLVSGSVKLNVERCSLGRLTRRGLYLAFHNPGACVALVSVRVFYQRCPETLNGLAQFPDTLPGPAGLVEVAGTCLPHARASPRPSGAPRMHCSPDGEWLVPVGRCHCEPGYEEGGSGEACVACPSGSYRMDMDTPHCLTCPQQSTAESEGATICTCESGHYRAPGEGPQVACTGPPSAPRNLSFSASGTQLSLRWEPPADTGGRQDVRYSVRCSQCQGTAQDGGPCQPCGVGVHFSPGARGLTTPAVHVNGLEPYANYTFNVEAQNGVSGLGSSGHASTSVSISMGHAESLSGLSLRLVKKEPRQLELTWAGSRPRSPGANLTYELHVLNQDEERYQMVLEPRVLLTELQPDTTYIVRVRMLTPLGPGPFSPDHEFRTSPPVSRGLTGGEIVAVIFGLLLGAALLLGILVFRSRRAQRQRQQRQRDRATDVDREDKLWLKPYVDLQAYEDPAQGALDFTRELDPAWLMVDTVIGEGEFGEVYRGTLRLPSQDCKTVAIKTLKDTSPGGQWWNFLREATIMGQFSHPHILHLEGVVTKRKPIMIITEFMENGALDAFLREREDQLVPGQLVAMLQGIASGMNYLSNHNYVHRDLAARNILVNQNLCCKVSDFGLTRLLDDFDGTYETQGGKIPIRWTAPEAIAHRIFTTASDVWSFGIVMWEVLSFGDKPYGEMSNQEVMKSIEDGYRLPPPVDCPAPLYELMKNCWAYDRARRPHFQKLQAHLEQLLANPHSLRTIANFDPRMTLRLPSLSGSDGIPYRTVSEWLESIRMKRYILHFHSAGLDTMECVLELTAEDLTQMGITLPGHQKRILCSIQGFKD
Particulars: read-out: %-inhibition at 1 µmol/L, EPHA1.

Assay [7] deals with panel of 255 wild-type kinases (Homo sapiens, UniProt Q08345). The following applies: read-out: %-inhibition at 1 µmol/L, DDR1.
In assay [8] the target is panel of 255 wild-type kinases (Homo sapiens, UniProt Q13164). The following applies: read-out: %-inhibition at 1 µmol/L, Erk5.
In assay [9] the target is panel of 255 wild-type kinases (Homo sapiens, UniProt Q13554). The following applies: read-out: %-inhibition CaMK2β.
The target of assay [10] is panel of 255 wild-type kinases (Homo sapiens, UniProt Q8IY84). The following applies: read-out: %-inhibition, NIM1K.
Assay [11] has as its target T3, panel of 255 wild-type kinases (Homo sapiens, UniProt Q96PN8).
T3 sequence (Q96PN8 1-268): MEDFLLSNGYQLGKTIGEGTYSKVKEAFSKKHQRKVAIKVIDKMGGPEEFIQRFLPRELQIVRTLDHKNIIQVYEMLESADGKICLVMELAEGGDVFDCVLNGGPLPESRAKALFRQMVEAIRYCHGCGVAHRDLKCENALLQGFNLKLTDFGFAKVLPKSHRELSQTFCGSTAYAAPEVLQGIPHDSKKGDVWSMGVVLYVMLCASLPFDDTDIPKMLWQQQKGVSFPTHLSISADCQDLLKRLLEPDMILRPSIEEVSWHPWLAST
The following applies: read-out: %-inhibition at 1 µmol/L, TSSK3.

Assay [12] addresses panel of 255 wild-type kinases (Homo sapiens, UniProt Q9Y3S1). Particulars: read-out: %-inhibition at 1 µmol/L, WNK2.
Where [13] appears, read: BUB1/BUB3 kinase assay, 1 µmol/L single concentration.
The mark [14] stands for this setting: NuaK1, 1 µmol/L single concentration.
Where [15] appears, read: kinase JAK2, 1 µmol/L single concentration.
Setting [16] is: kinase PKCβ1, 1 µmol/L single concentration.
The mark [17] stands for this setting: kinase IRR, 1 µmol/L single concentration.
Setting [18] is: kinase EPHA1, 1 µmol/L single concentration.
[19] abbreviates: kinase DDR1, 1 µmol/L single concentration.
Where [20] appears, read: kinase Erk5, 1 µmol/L single concentration.
[21] abbreviates: CaMK2β kinase assay, 1 µmol/L single concentration.
The mark [22] stands for this setting: NIM1K, 1 µmol/L single concentration.
Setting [23] is: kinase TSSK3, 1 µmol/L single concentration.
Setting [24] is: kinase WNK2, 1 µmol/L single concentration.

Among the data in paper PMC9516332 (Frontiers in Oncology, 2022) are inhibition values, retold here.

Where two headings read alike, the source gives them in different places.

For the compound `Cc1nc(NC(=O)N2CCC[C@H]2C(N)=O)sc1-c1ccnc(C(C)(C)C(F)(F)F)c1` [alpelisib], the inhibition at 1 µM was -4.62% in assay [1] (setting [13]); 9% in assay [2] (setting [14]); 1.85% in [3] (setting [15]); 7% in [4] (setting [16]); 7% in assay [5] (setting [17]); -3.59% in assay [6] (setting [18]). For the same compound, the inhibition at 1 µM in assay [7] (setting [19]) is 3.8%; in [8] (setting [20]), 0.367%; in [9] (setting [21]) it was -7%; in assay [10] (setting [22]) it was -1.81%; in assay [11] (setting [23]) it was 0.673%; in [12] (setting [24]), -3.36%.
As to `Cn1cc(-c2cc3c(N4CCN(c5ncc([C@@](C)(N)c6ccc(F)cc6)cn5)CC4)ncnn3c2)cn1` [avapritinib], the inhibition at 1 µM in [1] (setting [13]) was found to be 4%; in assay [2] (setting [14]), 85%; in [3] (setting [15]) it was 52%; in assay [4] (setting [16]) it was 1.74%; in assay [5] (setting [17]) it was 2.37%; in assay [6] (setting [18]), 51%. Also, the inhibition at 1 µM in assay [8] (setting [20]) is 1.78%; in assay [9] (setting [21]), 0.895%; in [10] (setting [22]), 0.427%; in [11] (setting [23]), -4%; in assay [12] (setting [24]), 0.928%.
`Cn1cnc2c(F)c(Nc3ccc(Br)cc3F)c(C(=O)NOCCO)cc21` [binimetinib]: the inhibition at 1 µM is -3.43% in assay [1] (setting [13]); -4.32% in assay [2] (setting [14]); -0.409% in assay [3] (setting [15]); -3.39% in [4] (setting [16]); -5.48% in assay [5] (setting [17]); 4% in [6] (setting [18]). In addition, the inhibition at 1 µM is -0.162% in assay [7] (setting [19]); -0.05% in [8] (setting [20]); 2.18% in assay [9] (setting [21]); -2.23% in assay [10] (setting [22]); 2.62% in assay [11] (setting [23]); -2.48% in [12] (setting [24]).
Consider `CNC(=O)c1ccc(-c2cnc3ncc(Cc4ccc5ncccc5c4)n3n2)cc1F` [capmatinib], for which the inhibition at 1 µM in assay [1] was 1.44%; in assay [2], -1.53%; in assay [3] it was 1.58%; in assay [4], 1.2%; in assay [5], 4%; in [6], -3.32%. The inhibition at 1 µM in [7] is -2.22e-14%; in [8] it was -3%; in [9], 0.692%; in [10], -2%; in assay [11] it was -7%; in [12], -2.3%.
With `COc1cc2ncnc(Nc3ccc(F)c(Cl)c3)c2cc1NC(=O)/C=C/CN1CCCCC1` [dacomitinib], the inhibition at 1 µM was found to be 22% in [1] (setting [13]); 11% in assay [2] (setting [14]); 0.856% in assay [3] (setting [15]); 3.74% in assay [4] (setting [16]); 6% in [5] (setting [17]); 79% in assay [6] (setting [18]). For the same compound, the inhibition at 1 µM in [7] (setting [19]) was 101%; in assay [8] (setting [20]) it was 0.172%; in assay [9] (setting [21]) it was 2.54%; in [10] (setting [22]), 1.1%; in assay [11] (setting [23]), 3%; in [12] (setting [24]) it was -4%.
In the case of `C[C@H](Nc1ncnc2nc[nH]c12)c1cc2cccc(Cl)c2c(=O)n1-c1ccccc1` [duvelisib], the inhibition at 1 µM in [1] (setting [13]) is -3.41%; in [2] (setting [14]), 0.44%; in assay [3] (setting [15]) it was 3.29%; in assay [4] (setting [16]), 5%; in assay [5] (setting [17]), 7%; in assay [6] (setting [18]), -7%. The inhibition at 1 µM in assay [7] (setting [19]) was 6%; in assay [8] (setting [20]), -0.634%; in assay [9] (setting [21]), -7.37%; in assay [10] (setting [22]), -3.41%; in assay [11] (setting [23]), 3%; in assay [12] (setting [24]), -1.82%.
Consider `CCN1CCN(c2ccc(Nc3cc(N(C)C(=O)Nc4c(Cl)c(OC)cc(OC)c4Cl)ncn3)cc2)CC1` [infigratinib], for which the inhibition at 1 µM in assay [1] (setting [13]) was -1.66%; in assay [2] (setting [14]), 8%; in assay [3] (setting [15]), 2.11%; in [4] (setting [16]), 5%; in assay [5] (setting [17]) it was 34%; in [6] (setting [18]), -2%. The inhibition at 1 µM in assay [7] (setting [19]) is 96%; in [8] (setting [20]), 30%; in [10] (setting [22]), -2.7%; in assay [11] (setting [23]), -1.43%; in assay [12] (setting [24]) it was 1%.
As to `C[C@H]1Oc2cc(cnc2N)-c2c(nn(C)c2C#N)CN(C)C(=O)c2ccc(F)cc21` [lorlatinib], the inhibition at 1 µM in [1] (setting [13]) is -5%; in [2] (setting [14]), 26%; in [3] (setting [15]), 69%; in [4] (setting [16]), 7%; in assay [5] (setting [17]), 78%; in assay [6] (setting [18]), 73%. For the same compound, the inhibition at 1 µM was 38% in assay [8] (setting [20]); -3.21% in [9] (setting [21]); 1.32% in assay [10] (setting [22]); 3.55% in assay [11] (setting [23]); -0.739% in assay [12] (setting [24]).
